Measurements reported in ChEMBL document CHEMBL1909046, “DrugMatrix in vitro pharmacology data”.

Experiments:
[1] = target: Matrix metalloproteinase-9 (Homo sapiens, UniProt P14780); format: cell-based;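 further: inhibition of isolated MMP-9 enzyme activity toward a synthetic peptide substrate, from the DrugMatrix protease screening panel; in other assays of this panel Not Active means under 50% inhibition at 10 µM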
[2] = DRUGMATRIX: Glutamate, NMDA, Phencyclidine radioligand binding (ligand: [3H] TCP); format: cell membranes, Rattus norvegicus, Wistar, Cerebral cortex, Membrane; details: Not Active = under 50% inhibition at 10 µM
[3] = DRUGMATRIX: Calcium Channel Type L, Benzothiazepine radioligand binding (ligand: [3H] Diltiazem); format: cell membranes, Rattus norvegicus, Wistar, Brain, Membrane; details: Not Active = under 50% inhibition at 10 µM
[4] = target: C-C chemokine receptor type 5 (Homo sapiens, UniProt P51681); format: cell membranes, Membrane; details: hek293; further: in other assays of this panel Not Active means under 50% inhibition at 10 µM
Sequence of C-C chemokine receptor type 5 (P51681 whole entry): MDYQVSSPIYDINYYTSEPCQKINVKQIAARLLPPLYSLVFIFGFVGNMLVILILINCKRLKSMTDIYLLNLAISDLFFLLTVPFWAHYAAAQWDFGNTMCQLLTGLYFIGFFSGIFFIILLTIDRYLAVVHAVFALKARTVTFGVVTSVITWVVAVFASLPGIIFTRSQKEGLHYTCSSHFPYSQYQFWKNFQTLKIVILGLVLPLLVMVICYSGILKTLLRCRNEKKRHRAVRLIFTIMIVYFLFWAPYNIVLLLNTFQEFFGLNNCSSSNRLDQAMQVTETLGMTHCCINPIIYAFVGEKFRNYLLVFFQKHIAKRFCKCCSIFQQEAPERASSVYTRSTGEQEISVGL

[5] = target: 5-hydroxytryptamine receptor 4 (Cavia porcellus, UniProt O70528); format: cell membranes, Dunkin-Hartley, Striatum, Membrane; further: in other assays of this panel Not Active means under 50% inhibition at 10 µM
Sequence of 5-hydroxytryptamine receptor 4 (O70528 whole entry): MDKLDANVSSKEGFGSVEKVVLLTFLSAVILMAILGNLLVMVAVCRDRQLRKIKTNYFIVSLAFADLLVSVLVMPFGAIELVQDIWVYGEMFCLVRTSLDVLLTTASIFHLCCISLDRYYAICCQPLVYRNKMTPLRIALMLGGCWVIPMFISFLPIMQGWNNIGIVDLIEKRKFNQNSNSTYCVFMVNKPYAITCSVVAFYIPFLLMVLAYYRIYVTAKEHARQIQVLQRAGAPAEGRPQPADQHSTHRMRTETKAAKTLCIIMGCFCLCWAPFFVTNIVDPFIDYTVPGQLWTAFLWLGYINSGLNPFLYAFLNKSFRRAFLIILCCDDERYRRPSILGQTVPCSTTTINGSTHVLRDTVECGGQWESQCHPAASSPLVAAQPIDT

[6] = target: Cytochrome P450 2E1 (Homo sapiens, UniProt P05181); details: bti-tn-5b1-4; further: in other assays of this panel Not Active means under 50% inhibition at 10 µM
Sequence of Cytochrome P450 2E1 (P05181 whole entry): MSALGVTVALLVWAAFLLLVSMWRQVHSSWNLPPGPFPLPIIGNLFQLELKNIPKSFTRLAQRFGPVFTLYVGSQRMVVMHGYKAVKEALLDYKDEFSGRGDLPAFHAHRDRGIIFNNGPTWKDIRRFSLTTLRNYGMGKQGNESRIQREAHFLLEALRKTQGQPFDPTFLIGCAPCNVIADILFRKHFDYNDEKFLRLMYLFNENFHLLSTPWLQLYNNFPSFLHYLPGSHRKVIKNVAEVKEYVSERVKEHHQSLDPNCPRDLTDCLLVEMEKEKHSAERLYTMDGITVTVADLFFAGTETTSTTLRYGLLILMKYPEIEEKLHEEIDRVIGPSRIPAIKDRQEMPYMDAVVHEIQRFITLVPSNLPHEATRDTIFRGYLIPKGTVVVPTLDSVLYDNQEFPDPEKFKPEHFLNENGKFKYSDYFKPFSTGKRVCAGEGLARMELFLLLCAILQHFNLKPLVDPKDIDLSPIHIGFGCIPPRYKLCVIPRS

[7] = target: T1, Receptor-type tyrosine-protein phosphatase C (Homo sapiens, UniProt P08575); parameters: species or system Escherichia coli
T1 sequence (P08575 whole entry): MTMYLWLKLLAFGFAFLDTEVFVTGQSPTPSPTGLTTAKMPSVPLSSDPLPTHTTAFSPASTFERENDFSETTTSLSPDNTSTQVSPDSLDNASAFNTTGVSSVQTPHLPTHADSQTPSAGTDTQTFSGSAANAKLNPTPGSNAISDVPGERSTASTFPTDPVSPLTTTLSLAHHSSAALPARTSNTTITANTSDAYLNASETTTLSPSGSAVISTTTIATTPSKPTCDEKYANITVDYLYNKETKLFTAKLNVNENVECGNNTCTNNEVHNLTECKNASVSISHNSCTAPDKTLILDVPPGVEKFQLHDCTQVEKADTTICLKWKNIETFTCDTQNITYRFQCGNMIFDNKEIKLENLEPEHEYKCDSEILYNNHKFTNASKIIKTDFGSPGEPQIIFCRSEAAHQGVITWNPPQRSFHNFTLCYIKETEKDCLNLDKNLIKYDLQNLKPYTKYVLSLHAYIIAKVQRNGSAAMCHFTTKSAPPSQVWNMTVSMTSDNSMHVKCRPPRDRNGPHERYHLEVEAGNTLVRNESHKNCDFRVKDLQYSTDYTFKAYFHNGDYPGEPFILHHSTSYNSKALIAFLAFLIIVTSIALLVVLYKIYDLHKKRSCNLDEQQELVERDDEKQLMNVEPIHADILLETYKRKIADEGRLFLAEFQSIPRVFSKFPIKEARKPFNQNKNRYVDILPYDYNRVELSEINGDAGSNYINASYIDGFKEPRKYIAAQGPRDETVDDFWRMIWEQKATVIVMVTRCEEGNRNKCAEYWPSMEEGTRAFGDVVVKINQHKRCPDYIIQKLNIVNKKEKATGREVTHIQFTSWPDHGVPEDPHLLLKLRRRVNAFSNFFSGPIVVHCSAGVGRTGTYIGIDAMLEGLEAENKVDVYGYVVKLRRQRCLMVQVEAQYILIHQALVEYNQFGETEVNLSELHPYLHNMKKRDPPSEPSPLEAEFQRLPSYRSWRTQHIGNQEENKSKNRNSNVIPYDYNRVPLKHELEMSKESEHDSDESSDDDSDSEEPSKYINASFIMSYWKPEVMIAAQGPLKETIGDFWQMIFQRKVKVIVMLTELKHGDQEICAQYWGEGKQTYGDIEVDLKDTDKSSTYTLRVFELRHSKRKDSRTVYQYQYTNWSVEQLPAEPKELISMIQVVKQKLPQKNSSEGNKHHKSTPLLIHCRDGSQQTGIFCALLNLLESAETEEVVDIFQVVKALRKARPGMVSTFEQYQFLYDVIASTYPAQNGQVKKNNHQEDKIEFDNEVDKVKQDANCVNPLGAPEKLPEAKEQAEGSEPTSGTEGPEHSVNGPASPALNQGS

[8] = target: C-C chemokine receptor type 2 (Homo sapiens, UniProt P41597); format: cell membranes, CHO-K1, Membrane; details: cho-k1; further: in other assays of this panel Not Active means under 50% inhibition at 10 µM
Sequence of C-C chemokine receptor type 2 (P41597 whole entry): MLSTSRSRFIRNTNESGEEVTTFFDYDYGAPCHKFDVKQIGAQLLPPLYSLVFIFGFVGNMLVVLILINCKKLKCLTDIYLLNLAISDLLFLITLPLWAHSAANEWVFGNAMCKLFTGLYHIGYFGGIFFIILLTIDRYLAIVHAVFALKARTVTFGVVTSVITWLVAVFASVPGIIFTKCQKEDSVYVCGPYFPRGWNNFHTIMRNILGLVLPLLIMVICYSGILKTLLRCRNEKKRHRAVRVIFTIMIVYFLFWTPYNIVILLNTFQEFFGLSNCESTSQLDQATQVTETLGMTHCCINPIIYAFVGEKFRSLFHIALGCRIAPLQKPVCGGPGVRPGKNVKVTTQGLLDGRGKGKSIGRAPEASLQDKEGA

[9] = target: T2, B2 bradykinin receptor (Homo sapiens, UniProt P30411); format: cell membranes, Membrane; details: chem-1; further: in other assays of this panel Not Active means under 50% inhibition at 10 µM
T2 sequence (P30411 whole entry): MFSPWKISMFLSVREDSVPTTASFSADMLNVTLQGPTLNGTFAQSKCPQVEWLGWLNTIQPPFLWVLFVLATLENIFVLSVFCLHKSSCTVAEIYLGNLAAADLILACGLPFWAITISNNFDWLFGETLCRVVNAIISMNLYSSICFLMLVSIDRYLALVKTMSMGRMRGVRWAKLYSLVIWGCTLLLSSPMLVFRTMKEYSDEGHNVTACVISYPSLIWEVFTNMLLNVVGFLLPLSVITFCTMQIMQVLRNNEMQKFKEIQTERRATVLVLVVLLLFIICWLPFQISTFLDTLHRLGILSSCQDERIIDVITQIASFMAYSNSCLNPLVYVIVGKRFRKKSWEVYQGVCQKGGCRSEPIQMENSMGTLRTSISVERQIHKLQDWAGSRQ

[10] = target: T3, Muscarinic acetylcholine receptor M4 (Homo sapiens, UniProt P08173); format: cell membranes, CHO-K1, Membrane; details: cho-k1; further: in other assays of this panel Not Active means under 50% inhibition at 10 µM
T3 sequence (P08173 whole entry): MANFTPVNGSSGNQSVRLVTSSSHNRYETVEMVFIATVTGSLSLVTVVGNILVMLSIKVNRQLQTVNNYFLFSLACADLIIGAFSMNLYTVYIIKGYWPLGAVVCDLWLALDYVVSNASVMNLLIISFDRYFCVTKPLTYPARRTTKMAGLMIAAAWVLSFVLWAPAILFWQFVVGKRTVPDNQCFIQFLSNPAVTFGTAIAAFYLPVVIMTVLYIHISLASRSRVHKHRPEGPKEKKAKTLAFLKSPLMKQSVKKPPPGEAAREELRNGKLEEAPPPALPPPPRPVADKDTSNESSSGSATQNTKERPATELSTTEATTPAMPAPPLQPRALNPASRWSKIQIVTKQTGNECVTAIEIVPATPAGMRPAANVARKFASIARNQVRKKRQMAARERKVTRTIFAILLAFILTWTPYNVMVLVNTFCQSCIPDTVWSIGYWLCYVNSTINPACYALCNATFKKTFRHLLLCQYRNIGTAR

[11] = target: D(1A) dopamine receptor (Homo sapiens, UniProt P21728); test: DRUGMATRIX: Dopamine D1 radioligand binding (ligand: [3H] SCH-23390); format: cell membranes, CHO, Membrane; details: cho; Not Active = under 50% inhibition at 10 µM
Sequence of D(1A) dopamine receptor (P21728 whole entry): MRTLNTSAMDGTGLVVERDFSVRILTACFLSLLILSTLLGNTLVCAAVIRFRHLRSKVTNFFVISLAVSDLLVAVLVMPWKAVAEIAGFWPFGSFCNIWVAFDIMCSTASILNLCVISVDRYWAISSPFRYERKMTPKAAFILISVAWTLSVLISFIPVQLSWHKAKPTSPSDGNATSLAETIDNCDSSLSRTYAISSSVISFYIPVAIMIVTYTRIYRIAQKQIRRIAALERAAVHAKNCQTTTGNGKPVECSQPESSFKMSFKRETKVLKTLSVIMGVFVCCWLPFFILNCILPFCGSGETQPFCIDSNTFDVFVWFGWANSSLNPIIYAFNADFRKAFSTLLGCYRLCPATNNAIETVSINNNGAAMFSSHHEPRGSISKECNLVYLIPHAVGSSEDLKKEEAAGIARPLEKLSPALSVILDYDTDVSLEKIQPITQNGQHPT

[12] = target: Estrogen receptor beta (Homo sapiens, UniProt Q92731); details: sf9; further: in other assays of this panel Not Active means under 50% inhibition at 10 µM
Sequence of Estrogen receptor beta (Q92731 whole entry): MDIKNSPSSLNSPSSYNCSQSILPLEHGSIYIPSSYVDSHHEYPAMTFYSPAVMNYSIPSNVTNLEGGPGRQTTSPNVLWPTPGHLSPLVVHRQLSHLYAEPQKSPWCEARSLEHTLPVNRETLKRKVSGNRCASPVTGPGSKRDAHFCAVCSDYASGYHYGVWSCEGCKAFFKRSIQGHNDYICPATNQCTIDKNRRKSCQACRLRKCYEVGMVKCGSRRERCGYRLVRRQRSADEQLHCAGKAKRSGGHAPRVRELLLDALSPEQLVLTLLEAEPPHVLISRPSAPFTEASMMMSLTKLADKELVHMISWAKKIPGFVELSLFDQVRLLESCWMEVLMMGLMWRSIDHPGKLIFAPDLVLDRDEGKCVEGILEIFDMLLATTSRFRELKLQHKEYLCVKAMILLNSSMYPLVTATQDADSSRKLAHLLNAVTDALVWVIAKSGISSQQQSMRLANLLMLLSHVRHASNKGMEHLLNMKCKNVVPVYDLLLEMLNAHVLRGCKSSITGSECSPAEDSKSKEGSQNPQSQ

[13] = target: Sodium-dependent dopamine transporter (Homo sapiens, UniProt Q01959); test: DRUGMATRIX: Dopamine Transporter radioligand binding (ligand: [125I] RTI-55); format: cell membranes, CHO-K1, Membrane; details: cho-k1; Not Active = under 50% inhibition at 10 µM
Sequence of Sodium-dependent dopamine transporter (Q01959 whole entry): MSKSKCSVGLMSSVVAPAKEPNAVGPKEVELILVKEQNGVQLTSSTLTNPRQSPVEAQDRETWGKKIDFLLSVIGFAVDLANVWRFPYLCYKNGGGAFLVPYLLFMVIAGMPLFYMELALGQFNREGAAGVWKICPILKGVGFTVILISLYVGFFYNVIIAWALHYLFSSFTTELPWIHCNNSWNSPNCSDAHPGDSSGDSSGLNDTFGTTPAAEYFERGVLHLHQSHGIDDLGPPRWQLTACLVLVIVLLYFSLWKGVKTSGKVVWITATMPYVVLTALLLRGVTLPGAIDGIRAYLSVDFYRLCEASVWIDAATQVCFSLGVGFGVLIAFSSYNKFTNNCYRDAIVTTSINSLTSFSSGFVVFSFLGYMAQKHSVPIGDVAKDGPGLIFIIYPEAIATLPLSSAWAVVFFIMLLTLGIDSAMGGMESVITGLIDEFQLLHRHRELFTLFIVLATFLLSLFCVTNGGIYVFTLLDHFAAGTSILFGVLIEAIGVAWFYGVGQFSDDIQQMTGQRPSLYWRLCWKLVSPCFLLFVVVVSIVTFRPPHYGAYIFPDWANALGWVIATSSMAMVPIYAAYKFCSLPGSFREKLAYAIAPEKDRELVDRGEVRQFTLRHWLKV

Sequence of Matrix metalloproteinase-9 (P14780 whole entry): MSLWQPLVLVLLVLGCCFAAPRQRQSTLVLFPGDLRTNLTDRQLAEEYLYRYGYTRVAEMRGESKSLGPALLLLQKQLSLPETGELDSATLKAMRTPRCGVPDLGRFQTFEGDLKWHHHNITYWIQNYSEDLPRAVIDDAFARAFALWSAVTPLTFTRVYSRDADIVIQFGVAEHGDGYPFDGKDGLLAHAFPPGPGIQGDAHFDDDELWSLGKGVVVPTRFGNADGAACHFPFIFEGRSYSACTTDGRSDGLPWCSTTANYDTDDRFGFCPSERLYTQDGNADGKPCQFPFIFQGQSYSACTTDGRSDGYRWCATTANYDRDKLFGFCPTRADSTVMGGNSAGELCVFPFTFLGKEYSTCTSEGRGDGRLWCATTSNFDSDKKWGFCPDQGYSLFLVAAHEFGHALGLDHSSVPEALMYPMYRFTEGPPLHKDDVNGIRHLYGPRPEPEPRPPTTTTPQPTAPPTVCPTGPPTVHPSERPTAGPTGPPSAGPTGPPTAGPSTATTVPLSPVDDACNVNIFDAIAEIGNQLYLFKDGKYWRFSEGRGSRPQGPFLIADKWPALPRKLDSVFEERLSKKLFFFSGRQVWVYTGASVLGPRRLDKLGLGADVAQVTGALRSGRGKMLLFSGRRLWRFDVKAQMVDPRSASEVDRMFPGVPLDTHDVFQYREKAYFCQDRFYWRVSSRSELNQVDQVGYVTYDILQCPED

Substance	IC50 [1]	Ki [1]	IC50 [2]	Ki [2]	IC50 [3]	Ki [3]	IC50 [4]	Ki [4]	IC50 [5]	Ki [5]	IC50 [6]	Ki [6]	IC50 [7]	Ki [7]	IC50 [9]	Ki [9]	IC50 [10]	Ki [10]	IC50 [11]	Ki [11]	further results
CARBOPLATIN	Not Active	Not Active	Not Active	Not Active	Not Active	Not Active	Not Active	Not Active	Not Active	Not Active	Not Active	Not Active	Not Active	Not Active	Not Active	Not Active	Not Active	Not Active	Not Active	Not Active	IC50 [8]: Not Active; Ki [8]: Not Active; IC50 [12]: Not Active; Ki [12]: Not Active; IC50 [13]: Not Active; Ki [13]: Not Active
CISPLATIN	Not Active	Not Active	Not Active	Not Active	Not Active	Not Active	Not Active	Not Active	Not Active	Not Active	Not Active	Not Active	Not Active	Not Active	Not Active	Not Active	Not Active	Not Active	Not Active	Not Active	IC50 ([8]; read-out: IC50): 18.1 µM; Ki ([8]; read-out: Ki): 7.01 µM; IC50 [12]: Not Active; Ki [12]: Not Active; IC50 [13]: Not Active; Ki [13]: Not Active
GOLD SODIUM THIOMALATE	Not Active	Not Active	Not Active	Not Active	Not Active	Not Active	Not Active	Not Active	Not Active	Not Active	Not Active	Not Active	Not Active	Not Active	Not Active	Not Active	Not Active	Not Active	Not Active	Not Active	IC50 [8]: Not Active; Ki [8]: Not Active; IC50 [12]: Not Active; Ki [12]: Not Active; IC50 [13]: Not Active; Ki [13]: Not Active
OXALIPLATIN	Not Active	Not Active	Not Active	Not Active	Not Active	Not Active	Not Active	Not Active	Not Active	Not Active	Not Active	Not Active	Not Active	Not Active	Not Active	Not Active	Not Active	Not Active	Not Active	Not Active	IC50 [8]: Not Active; Ki [8]: Not Active; IC50 [12]: Not Active; Ki [12]: Not Active; IC50 [13]: Not Active; Ki [13]: Not Active
